Reference: patent US20040092590A1, “Glycemic control for prediabetes and/or diabetes Type II using docosahexaenoic acid” (priority 2002, published 2004)

Experiments:
[1] = tested on: KK-Ay mouse (obese diabetic mice); conditions: 100 mg/kg body weight, not normal or lean diabetic mice; cited from earlier work
patients = conditions: cited from earlier work
[2] = tested on: patients with dyslipidemia; experiment: Clinical study: DHASCO capsules co-administered with statin medication for 12 months; assay type: in vivo, human; conditions: patients treated with DHA
From the text: Thus, the present inventors have discovered that DHA has a long term effect (as shown by reduction in glycosylated hemoglobin levels reflecting longer term glucose control integrated over 2-3 months). Finally, the inventors have discovered that therapy using DHA-containing oils can be effective at DHA levels that are not excessive (e.g., at levels which minimize side effects associated with fatty acid ingestion).
In a clinical study, DHASCO capsules (which contained DHA as a triglyceride oil extracted from Crypthecodinium cohnii cells, obtained from Martek Biosciences Corp., Columbia, Md.) were co-administered with statin medication to patients with dyslipidemia. Hyperlipidemic patients already being treated with a stable dose of a statin medication but still failing to meet NCEP guidelines for LDL-cholesterol or triglycerides were treated with either 200 or 1000 mg of DHA daily for 12 months. HbA1c levels (glycosylated hemoglobin, a marker of glycemic control) were measured in plasma at baseline and after 8 or 12 months of treatment.
Reduction in CRP of this extent is clinically significant, and may be correlated with a benefit of reduced risk of Type II diabetes onset, independent of other Type II risk factors.

[3] = tested on: subjects with HDL levels below the sex-specific median; experiment: Randomized, double-blind, controlled trial of DHASCO-S capsules, six weeks; metabolic disturbance score, serum lipids, LDL particles; assay type: in vivo, human; conditions: 1.52 g DHA per day
From the text: DHASCO-S capsules (which contained DHA as a triglyceride oil extracted from Schizochytrium sp. cells, obtained from Martek Biosciences Corp., Columbia, Md.) were used in the following study. Subjects (n=57) were enrolled in a randomized, double-blind, controlled trial to assess the response to 1.52 g of DHA per day for six weeks. Subjects were aged 21-80 and had HDL levels below the sex-specific median (a criterion for metabolic syndrome). The average triglyceride (TG) level at the beginning of the study was 169-179 mg/dl (metabolic syndrome criterion >150 mg/dL). The average distribution of LDL particles in this population was 44-50% small dense particles. Small dense particles are another lipid hallmark of metabolic syndrome. […] The average waist circumference for men and women combined was about 100+/−2.5 cm (criterion for metabolic syndrome is about 88 cm for women and about 102 cm for men). The average blood pressure in the study was normotensive at 120/77 mmHg.
The metabolic disturbance score was calculated to assess the relationship between independent variables and the criterion related to metabolic syndrome. The score is a composite of values for selected risk factors including: serum triglycerides, serum HDL cholesterol, systolic blood pressure, waist circumference, and fasting serum glucose. The following formula was utilized to calculate the metabolic score, where Z=the z score, i.e., the number of standard deviations above or below the mean value for each variable (Micciolo 1991; Maki 1994): Metabolic Disturbance Score=Z for triglycerides+Z for systolic blood pressure+Z for waist circumference+Z for glucose−Z for HDL cholesterol. Since triglyceride values were not normally distributed, a natural log-transformation was performed to normalize the distribution prior to calculating the Z score.
Additionally, pre-specified subgroup analyses were performed for serum lipid and metabolic disturbance score values. The triglyceride subgroups were split at the median baseline value (170 mg/dL). A Body Mass Index (BMI) of 30 kg/m^2 was chosen as the cut-point for BMI subgroups (BMI<30 kg/m2 and BMI≧30 kg/m^2) because persons with a BMI≧30 kg/M^2 are considered obese (Expert Panel 1998).

## CC/C=C\C/C=C\C/C=C\C/C=C\C/C=C\C/C=C\CCC(=O)OCC [DHA ethyl ester]
[1]
  blood glucose: reduced
  insulin sensitivity: enhanced
  plasma triglycerides: reduced

## CN(C)C(=N)N=C(N)N [Metformin]
patients; fraction of patients
  patients with gastrointestinal reactions: about a third
patients; rare reaction
  lactic acidosis cases that are fatal: about 50%

## CC/C=C\C/C=C\C/C=C\C/C=C\C/C=C\C/C=C\CCC(=O)O [DHA, docosahexaenoic acid]
[2]
  overall reduction in CRP levels: 15%
[3]; P=0.028 vs control
  increase in large LDL particles from baseline to end of treatment: 32.4%
[3]; P=0.191 vs control
  change in small LDL particles from baseline: −23.2%
[3]; p=0.001 vs control
  change in TG from baseline: −25.4%
[3]; p=0.102 vs control
  increase in HDL: +9.0%
[3]; subjects with baseline triglycerides >=170 mg/dL, p=0.001 vs control
  change from baseline in metabolic disturbance score, subgroup: −1.16
